Data from article PMC6282443 (Journal of Enzyme Inhibition and Medicinal Chemistry, 2018).
Read-outs that look alike come from different tables or passages of the source.

Legend:
Assay type in all cases: cell-based, human
[1] = tested on: A549 cells; experiment: cells; conditions: read-out: Anti-proliferative activity IC50, A549
[2] = tested on: HepG2 cells; experiment: MTT anti-proliferative assay, HepG2; conditions: read-out: Anti-proliferative activity IC50, HepG2
[3] = tested on: H1975 cells; conditions: H1975, MTT; for IC50: read-out: Anti-proliferative activity IC50, H1975, 72 h
[4] = tested on: MCF-7 cells; experiment: MTT anti-proliferative assay, MCF-7; conditions: read-out: Anti-proliferative activity IC50, MCF-7

Row | Compound | IC50 ([1]; A549, MTT, 72 h) [µM] | IC50 ([2]; HepG2, MTT, 72 h) [µM] | inhibitory activity against H1975 cells (in words) [3] | IC50 [3] [µM] | IC50 ([4]; MCF-7, MTT, 72 h) [µM] | IC50 ([1]; Homo sapiens, A549, 72 h) [µM] | IC50 ([2]; Homo sapiens, HepG2, 72 h) [µM] | IC50 ([4]; Homo sapiens, MCF7, 72 h) [µM]
1 | (S,E)-N-(4-((3-chloro-4-fluorophenyl)amino)-7-((tetrahydrofuran-3-yl)oxy)quinazolin-6-yl)-2-(4-(3-(diethylamin o)propoxy)benzylidene)hydrazine-1-carboxamide [Compound 49] | 9.48 ± 0.86 | 5.04 ± 0.64 | poorer cellular activity | 32.8 ± 1.27 | 6.21 ± 0.68 | – | – | –
2 | CCN(CC)Cc1ccc(/C=N/NC(=O)Nc2cc3c(Nc4ccc(F)c(Cl)c4)ncnc3cc2O[C@H]2CCOC2)cc1 [Compound 26, (S,E)-N-(4-((3-chloro-4-fluorophenyl)amino)-7-((tetrahydrofuran-3-yl)oxy)quinazolin-6-yl)-2-(4-((diethylamino)methyl)benzylidene)hydrazine-1-carboxamide] | – | – | – | – | – | 23.1 ± 1.54 | 53.6 ± 4.75 | 36.9 ± 3.54
3 | COc1cc2ncnc(Nc3ccc(F)c(Cl)c3)c2cc1NC(=O)N/N=C/c1ccc(N2CCCC2)nc1 [Compound 17, (E)-N-(4-((3-chloro-4-fluorophenyl)amino)-7-methoxyquinazolin-6-yl)-2-((6-(pyrrolidin-1-yl)pyridin-3-yl)methylene) hydrazine-1-carboxamide] | 14.6 ± 1.21 | 13.2 ± 1.31 | – | 35.3 ± 2.35 | 12.9 ± 1.12 | – | – | –
4 | (E)-N-(4-((3-chloro-4-fluoropheny)amino)-7-methoxyquinazolin-6-yl)-2-(4-(3-(pyrrolidin-1-yl)propoxy)benzyli dene)hydrazine-1-carboxamide [Compound 45] | 23.2 ± 1.47 | 24.5 ± 1.27 | – | 38.2 ± 1.23 | 16.9 ± 1.34 | – | – | –
5 | (E)-N-(4-((3-chloro-4-fluoropheny)amino)-7-methoxyquinazolin-6-yl)-2-(4-(3-(4-methylpiperazin-1-yl)propoxy) benzylidene)hydrazine-1-carboxamide [Compound 48] | 2.96 ± 0.36 | 14.5 ± 1.27 | moderate inhibitory activity | 10.2 ± 1.26 | 12.2 ± 0.89 | – | – | –
6 | CCN(CC)CCOc1ccc(/C=N/NC(=O)Nc2cc3c(Nc4ccc(F)c(Cl)c4)ncnc3cc2OC)cc1 [Compound 32, (E)-N-(4-((3-chloro-4-fluoropheny)amino)-7-methoxyquinazolin-6-yl)-2-(4-(2-(diethylamino)ethoxy)benzylidene)hydrazine-1-carboxamide] | 8.62 ± 1.13 | 13.2 ± 1.03 | poorer cellular activity | 32.6 ± 3.45 | 12.5 ± 1.24 | – | – | –
7 | COc1cc2ncnc(Nc3ccc(F)c(Cl)c3)c2cc1NC(=O)N/N=C/c1ccc(CN2CCOCC2)cc1 [Compound 23, (E)-N-(4-((3-chloro-4-fluorophenyl)amino)-7-methoxyquinazolin-6-yl)-2-(4-(morpholinomethyl)benzylidene)hydrazine-1-carboxamide] | – | – | – | – | – | > 100 | > 100 | > 100
8 | COc1cc2ncnc(Nc3ccc(F)c(Cl)c3)c2cc1NC(=O)N/N=C/c1ccc(CN(C)C)cc1 [Compound 19, (E)-N-(4-((3-chloro-4-fluorophenyl)amino)-7-methoxyquinazolin-6-yl)-2-(4-((dimethylamino)methyl)benzylidene)hydrazine-1-carboxamide] | – | – | moderate inhibitory activity | – | – | 7.99 ± 0.82 | 9.89 ± 0.96 | 3.8 ± 0.22
9 | O=C(N/N=C/c1ccc(N2CCCC2)o1)Nc1cc2c(Nc3ccc(F)c(Cl)c3)ncnc2cc1O[C@H]1CCOC1 [Compound 15, (S,E)-N-(4-((3-chloro-4-fluorophenyl)amino)-7-((tetrahydrofuran-3-yl)oxy)quinazolin-6-yl)-2-((5-(pyrrolidin-1-yl)furan-2-yl)methylene)hydrazine-1-carboxamide] | – | – | poorer cellular activity | – | – | 10.5 ± 0.77 | 8.17 ± 0.98 | 14 ± 0.78
10 | CCN(CC)c1ccc(/C=N/NC(=O)Nc2cc3c(Nc4ccc(F)c(Cl)c4)ncnc3cc2OC)cc1 [Compound 11, (E)-N-(4-((3-chloro-4-fluorophenyl)amino)-7-methoxyquinazolin-6-yl)-2-(4-(diethylamino)benzylidene)hydrazine-1-carboxamide] | – | – | – | – | – | 31.4 ± 2.12 | 11.5 ± 1.16 | 15.4 ± 1.14
11 | O=C(N/N=C/c1ccc(OCCN2CCOCC2)cc1)Nc1cc2c(Nc3ccc(F)c(Cl)c3)ncnc2cc1O[C@H]1CCOC1 [Compound 41, (S,E)-N-(4-((3-chloro-4-fluoropheny)amino)-7-((tetrahydrofuran-3-yl)oxy)quinazolin-6-yl)-2-(4-(2-morpholinoethoxy)benzylidene)hydrazine-1-carboxamide] | 37.8 ± 2.54 | 40.2 ± 3.04 | – | 25.5 ± 1.44 | 28.8 ± 1.29 | – | – | –
12 | O=C(N/N=C/c1ccc(CN2CCCC2)cc1)Nc1cc2c(Nc3ccc(F)c(Cl)c3)ncnc2cc1O[C@H]1CCOC1 [Compound 27, (S,E)-N-(4-((3-chloro-4-fluorophenyl)amino)-7-((tetrahydrofuran-3-yl)oxy)quinazolin-6-yl)-2-(4-(pyrrolidin-1-ylmethyl)benzylidene)hydrazine-1-carboxamide] | – | – | – | – | – | > 100 | > 100 | > 100
13 | O=C(N/N=C/c1ccc(CN2CCOCC2)cc1)Nc1cc2c(Nc3ccc(F)c(Cl)c3)ncnc2cc1O[C@H]1CCOC1 [Compound 29, (S,E)-N-(4-((3-chloro-4-fluorophenyl)amino)-7-((tetrahydrofuran-3-yl)oxy)quinazolin-6-yl)-2-(4-(morpholinomethyl)benzylidene)hydrazine-1-carboxamide] | – | – | – | – | – | > 100 | > 100 | > 100
14 | O=C(N/N=C/c1ccc(OCCCN2CCCCC2)cc1)Nc1cc2c(Nc3ccc(F)c(Cl)c3)ncnc2cc1O[C@H]1CCOC1 [Compound 52, (S,E)-N-(4-((3-chloro-4-fluorophenyl)amino)-7-((tetrahydrofuran-3-yl)oxy)quinazolin-6-yl)-2-(4-(3-(piperidin-1-yl)propoxy)benzylidene)hydrazine-1-carboxamide] | – | – | – | – | – | 4.65 ± 0.39 | 2.28 ± 0.26 | 2.56 ± 0.46
15 | COc1cc2ncnc(Nc3ccc(F)c(Cl)c3)c2cc1NC(=O)N/N=C/c1ccc(CN2CCCCC2)cc1 [Compound 22, (E)-N-(4-((3-chloro-4-fluorophenyl)amino)-7-methoxyquinazolin-6-yl)-2-(4-(piperidin-1-ylmethyl)benzylidene)hydrazine-1-carboxamide] | – | – | – | – | – | 24.2 ± 2.27 | 59.5 ± 4.75 | 31.1 ± 2.55
16 | O=C(N/N=C/c1ccc(OCCCN2CCCC2)cc1)Nc1cc2c(Nc3ccc(F)c(Cl)c3)ncnc2cc1O[C@H]1CCOC1 [Compound 51, (S,E)-N-(4-((3-chloro-4-fluorophenyl)amino)-7-((tetrahydrofuran-3-yl)oxy)quinazolin-6-yl)-2-(4-(3-(pyrrolidin-1-yl)propoxy)benzylidene)hydrazine-1-carboxamide] | – | – | – | – | – | 33.8 ± 1.14 | 17 ± 1.04 | 28.5 ± 1.27
17 | CCN(CC)CCCOc1ccc(/C=N/NC(=O)Nc2cc3c(Nc4ccc(F)c(Cl)c4)ncnc3cc2O[C@H]2CCOC2)cc1 [Compound 50, (S,E)-N-(4-((3-chloro-4-fluorophenyl)amino)-7-((tetrahydrofuran-3-yl)oxy)quinazolin-6-yl)-2-(4-(3-(diethylamino)propoxy)benzylidene)hydrazine-1-carboxamide] | – | – | – | – | – | 1.11 ± 0.14 | 1.08 ± 0.17 | 1.23 ± 0.37
18 | CN1CCN(CCCOc2ccc(/C=N/NC(=O)Nc3cc4c(Nc5ccc(F)c(Cl)c5)ncnc4cc3O[C@H]3CCOC3)cc2)CC1 [Compound 54, (S,E)-N-(4-((3-chloro-4-fluorophenyl)amino)-7-((tetrahydrofuran-3-yl)oxy)quinazolin-6-yl)-2-(4-(3-(4-methylpiperazin-1-yl)propoxy)benzylidene)hydrazine-1-carboxamide] | – | – | – | – | – | 40 ± 2.14 | 41.2 ± 2.04 | 38.4 ± 1.26
19 | CN1CCN(Cc2ccc(/C=N/NC(=O)Nc3cc4c(Nc5ccc(F)c(Cl)c5)ncnc4cc3O[C@H]3CCOC3)cc2)CC1 [Compound 30, (S,E)-N-(4-((3-chloro-4-fluorophenyl)amino)-7-((tetrahydrofuran-3-yl)oxy)quinazolin-6-yl)-2-(4-((4-methylpiperazin-1-yl)methyl)benzylidene)hydrazine-1-carboxamide] | – | – | – | – | – | 24.9 ± 1.66 | 17.5 ± 1.62 | 21 ± 1.68
20 | O=C(N/N=C/c1ccc(N2CCCC2)nc1)Nc1cc2c(Nc3ccc(F)c(Cl)c3)ncnc2cc1O[C@H]1CCOC1 [Compound 18, (S,E)-N-(4-((3-chloro-4-fluorophenyl)amino)-7-((tetrahydrofuran-3-yl)oxy)quinazolin-6-yl)-2-((6-(pyrrolidin-1-yl)pyridin-3-yl)methylene)hydrazine-1-carboxamide] | – | – | – | – | – | 19.2 ± 1.46 | 5.81 ± 0.61 | 12.4 ± 1.25
21 | O=C(N/N=C/c1ccc(CN2CCCCC2)cc1)Nc1cc2c(Nc3ccc(F)c(Cl)c3)ncnc2cc1O[C@H]1CCOC1 [Compound 28, (S,E)-N-(4-((3-chloro-4-fluorophenyl)amino)-7-((tetrahydrofuran-3-yl)oxy)quinazolin-6-yl)-2-(4-(piperidin-1-ylmethyl)benzylidene)hydrazine-1-carboxamide] | – | – | – | – | – | 2.25 ± 0.32 | 3.13 ± 0.45 | 4.3 ± 0.63
22 | O=C(N/N=C/c1ccc(OCCCN2CCOCC2)cc1)Nc1cc2c(Nc3ccc(F)c(Cl)c3)ncnc2cc1O[C@H]1CCOC1 [Compound 53, (S,E)-N-(4-((3-chloro-4-fluorophenyl)amino)-7-((tetrahydrofuran-3-yl)oxy)quinazolin-6-yl)-2-(4-(3-morpholinopropoxy)benzylidene)hydrazine-1-carboxamide] | – | – | – | – | – | > 100 | > 100 | > 100
